ChEMBL document CHEMBL5465560, “Selectivity Literature for EUbOPEN Chemogenomic Library” (2024)

What was measured:
[1] = molecular target: G protein-coupled receptor kinase 6 (Homo sapiens) (UniProt P43250); assay: Selectivity interaction (Upstate Kinase Profiler service (Millipore)) EUB0000056c GRK6; details: at 1 µM
[2] = molecular target: Mitogen-activated protein kinase kinase kinase 9 (Homo sapiens) (UniProt P80192); assay: Selectivity interaction (ProQinase) EUB0000171b MAP3K9
[3] = Selectivity interaction (KinomeScan (DiscoverX)) EUB0000695a PKNB; details: at 100 nM
[4] = molecular target: Mitogen-activated protein kinase 4 (Homo sapiens) (UniProt P31152); assay: Selectivity interaction (KinomeScan (DiscoverX)) EUB0001049a MAPK4; details: at 1 µM
[5] = molecular target: Ribosomal protein S6 kinase alpha-2 (Homo sapiens) (UniProt Q15349); assay: Selectivity interaction (Kinase screening (Nanosyn)) EUB0000604a RPS6KA2
[6] = molecular target: T1, Ephrin type-B receptor 2 (Homo sapiens) (UniProt P29323); assay: Selectivity interaction (Ambit KINOMEscan and KiNATiv profiling in Jurkat cells) EUB0000090b EPHB2; format: cell-based; details: at 1 µM
T1 sequence (whole entry): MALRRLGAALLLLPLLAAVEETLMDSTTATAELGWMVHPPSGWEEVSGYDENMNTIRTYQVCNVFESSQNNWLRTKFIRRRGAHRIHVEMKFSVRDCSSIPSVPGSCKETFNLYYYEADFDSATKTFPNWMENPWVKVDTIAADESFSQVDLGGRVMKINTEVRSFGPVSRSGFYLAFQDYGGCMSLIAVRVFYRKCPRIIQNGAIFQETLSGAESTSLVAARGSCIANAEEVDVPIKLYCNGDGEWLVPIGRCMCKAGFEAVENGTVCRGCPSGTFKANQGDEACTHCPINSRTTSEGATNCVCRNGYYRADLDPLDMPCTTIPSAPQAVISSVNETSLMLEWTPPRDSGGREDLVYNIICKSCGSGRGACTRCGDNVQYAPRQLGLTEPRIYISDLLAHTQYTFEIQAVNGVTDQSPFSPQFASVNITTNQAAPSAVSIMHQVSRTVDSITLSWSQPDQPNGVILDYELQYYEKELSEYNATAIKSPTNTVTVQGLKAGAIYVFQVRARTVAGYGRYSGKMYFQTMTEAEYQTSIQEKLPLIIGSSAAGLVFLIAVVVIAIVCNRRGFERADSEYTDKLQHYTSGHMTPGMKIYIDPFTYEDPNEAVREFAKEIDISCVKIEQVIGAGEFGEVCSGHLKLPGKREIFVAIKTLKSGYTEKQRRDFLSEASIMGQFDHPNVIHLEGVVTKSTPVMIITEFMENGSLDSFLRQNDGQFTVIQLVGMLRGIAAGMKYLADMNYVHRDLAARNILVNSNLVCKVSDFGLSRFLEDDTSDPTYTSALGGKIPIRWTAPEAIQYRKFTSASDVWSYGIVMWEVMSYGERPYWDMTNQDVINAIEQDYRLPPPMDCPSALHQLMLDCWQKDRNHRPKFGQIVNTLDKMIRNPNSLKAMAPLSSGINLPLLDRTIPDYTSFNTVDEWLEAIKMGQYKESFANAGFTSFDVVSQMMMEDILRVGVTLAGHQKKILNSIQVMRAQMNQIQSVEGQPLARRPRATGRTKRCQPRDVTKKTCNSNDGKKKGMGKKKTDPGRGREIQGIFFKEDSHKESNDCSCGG

[7] = test system: Serine/threonine-protein kinase B-raf (Homo sapiens), P15056 [V600E]; assay: (§1) Selectivity interaction (KinomeScan (DiscoverX)) EUB0001079a BRAF; details: at 1 µM
[8] = molecular target: Serine/threonine-protein kinase B-raf (Homo sapiens) (UniProt P15056); assay: as §1; details: at 1 µM
[9] = molecular target: T2, Mitogen-activated protein kinase kinase kinase 19 (Homo sapiens) (UniProt Q56UN5); assay: Selectivity interaction (KinomeScan (DiscoverX)) EUB0000618a MAP3K19; details: at 10 µM
T2 sequence (whole entry): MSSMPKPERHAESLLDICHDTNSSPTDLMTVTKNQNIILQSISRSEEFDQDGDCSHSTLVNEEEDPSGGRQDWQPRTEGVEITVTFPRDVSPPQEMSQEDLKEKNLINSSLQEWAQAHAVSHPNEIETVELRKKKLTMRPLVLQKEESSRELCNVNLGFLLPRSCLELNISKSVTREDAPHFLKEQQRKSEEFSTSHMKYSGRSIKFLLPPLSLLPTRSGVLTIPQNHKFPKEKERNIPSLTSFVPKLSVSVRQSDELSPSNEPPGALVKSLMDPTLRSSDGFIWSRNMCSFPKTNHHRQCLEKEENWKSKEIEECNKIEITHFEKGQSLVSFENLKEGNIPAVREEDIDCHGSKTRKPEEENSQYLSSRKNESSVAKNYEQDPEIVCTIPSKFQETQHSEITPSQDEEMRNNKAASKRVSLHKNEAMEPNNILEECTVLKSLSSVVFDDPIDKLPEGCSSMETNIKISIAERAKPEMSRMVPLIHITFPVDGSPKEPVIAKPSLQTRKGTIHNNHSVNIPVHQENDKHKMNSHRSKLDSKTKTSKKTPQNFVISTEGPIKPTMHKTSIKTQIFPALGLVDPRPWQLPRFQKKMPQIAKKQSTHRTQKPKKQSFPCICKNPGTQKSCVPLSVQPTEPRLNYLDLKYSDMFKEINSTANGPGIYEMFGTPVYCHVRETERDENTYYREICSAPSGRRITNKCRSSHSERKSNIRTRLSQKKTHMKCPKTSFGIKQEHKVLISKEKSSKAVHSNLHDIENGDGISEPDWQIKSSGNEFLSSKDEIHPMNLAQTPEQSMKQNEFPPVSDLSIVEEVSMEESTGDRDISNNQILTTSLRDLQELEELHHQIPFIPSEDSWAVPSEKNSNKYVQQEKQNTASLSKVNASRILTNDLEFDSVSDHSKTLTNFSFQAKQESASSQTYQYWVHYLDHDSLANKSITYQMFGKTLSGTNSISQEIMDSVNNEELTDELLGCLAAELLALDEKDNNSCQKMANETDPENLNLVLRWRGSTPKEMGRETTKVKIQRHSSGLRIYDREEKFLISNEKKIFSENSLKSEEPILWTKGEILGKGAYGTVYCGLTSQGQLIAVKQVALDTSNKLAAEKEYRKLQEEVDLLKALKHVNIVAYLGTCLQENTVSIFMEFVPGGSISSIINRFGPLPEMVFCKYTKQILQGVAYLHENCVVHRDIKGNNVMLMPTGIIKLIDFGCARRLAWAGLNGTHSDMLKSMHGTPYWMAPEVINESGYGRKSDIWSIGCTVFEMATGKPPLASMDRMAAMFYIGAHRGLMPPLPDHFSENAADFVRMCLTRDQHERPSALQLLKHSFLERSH

[10] = molecular target: Calcium/calmodulin-dependent protein kinase type 1D (Homo sapiens) (UniProt Q8IU85); assay: Selectivity interaction (ActivX KiNativ screen (ex vivo kinase selectivity in human PBMCs)) EUB0001619a CAMK1D; format: cell-based; details: PBMC, at 1 µM
Calcium/calmodulin-dependent protein kinase type 1D (Homo sapiens), sequence (Q8IU85 whole entry, looked up): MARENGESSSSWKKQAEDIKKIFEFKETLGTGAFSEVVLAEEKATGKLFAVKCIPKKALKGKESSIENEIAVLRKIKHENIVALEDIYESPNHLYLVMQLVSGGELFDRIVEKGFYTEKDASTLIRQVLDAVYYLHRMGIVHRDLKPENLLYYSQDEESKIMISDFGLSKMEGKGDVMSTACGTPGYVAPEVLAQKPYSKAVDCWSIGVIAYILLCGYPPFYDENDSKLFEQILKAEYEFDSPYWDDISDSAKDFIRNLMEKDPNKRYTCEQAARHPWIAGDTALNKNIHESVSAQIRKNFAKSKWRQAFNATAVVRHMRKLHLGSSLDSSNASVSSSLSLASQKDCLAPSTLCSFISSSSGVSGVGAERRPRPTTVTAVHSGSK

Mitogen-activated protein kinase kinase kinase 9 (Homo sapiens), sequence (P80192 whole entry, looked up): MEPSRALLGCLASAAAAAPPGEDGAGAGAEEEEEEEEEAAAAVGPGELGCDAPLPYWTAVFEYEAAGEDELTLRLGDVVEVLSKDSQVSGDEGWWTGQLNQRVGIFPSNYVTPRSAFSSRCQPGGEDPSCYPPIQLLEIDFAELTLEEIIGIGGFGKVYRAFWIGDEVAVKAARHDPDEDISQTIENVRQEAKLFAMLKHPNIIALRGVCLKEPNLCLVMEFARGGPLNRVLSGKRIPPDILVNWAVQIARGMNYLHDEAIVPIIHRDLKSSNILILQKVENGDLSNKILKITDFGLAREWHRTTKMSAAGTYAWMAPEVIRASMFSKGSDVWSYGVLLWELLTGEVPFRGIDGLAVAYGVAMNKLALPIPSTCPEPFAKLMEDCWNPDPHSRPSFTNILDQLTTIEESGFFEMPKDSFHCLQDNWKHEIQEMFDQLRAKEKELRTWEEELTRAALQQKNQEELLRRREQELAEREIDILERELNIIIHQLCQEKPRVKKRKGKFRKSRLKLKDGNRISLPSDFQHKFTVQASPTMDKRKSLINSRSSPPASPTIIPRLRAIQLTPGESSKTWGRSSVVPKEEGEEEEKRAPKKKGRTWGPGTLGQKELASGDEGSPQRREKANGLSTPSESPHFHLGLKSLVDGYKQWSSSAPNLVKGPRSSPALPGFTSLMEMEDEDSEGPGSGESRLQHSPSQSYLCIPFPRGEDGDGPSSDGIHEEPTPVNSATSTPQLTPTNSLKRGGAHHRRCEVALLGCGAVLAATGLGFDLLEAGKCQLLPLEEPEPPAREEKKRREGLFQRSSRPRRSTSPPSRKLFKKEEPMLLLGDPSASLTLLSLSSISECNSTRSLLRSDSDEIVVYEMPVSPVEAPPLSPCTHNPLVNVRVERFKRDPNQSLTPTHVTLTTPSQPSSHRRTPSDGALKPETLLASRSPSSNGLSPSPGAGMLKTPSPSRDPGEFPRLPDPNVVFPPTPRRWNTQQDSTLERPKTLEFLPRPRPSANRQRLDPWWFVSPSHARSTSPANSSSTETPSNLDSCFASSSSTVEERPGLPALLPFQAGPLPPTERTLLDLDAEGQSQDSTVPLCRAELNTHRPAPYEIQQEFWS
Serine/threonine-protein kinase B-raf (Homo sapiens), sequence (P15056 whole entry): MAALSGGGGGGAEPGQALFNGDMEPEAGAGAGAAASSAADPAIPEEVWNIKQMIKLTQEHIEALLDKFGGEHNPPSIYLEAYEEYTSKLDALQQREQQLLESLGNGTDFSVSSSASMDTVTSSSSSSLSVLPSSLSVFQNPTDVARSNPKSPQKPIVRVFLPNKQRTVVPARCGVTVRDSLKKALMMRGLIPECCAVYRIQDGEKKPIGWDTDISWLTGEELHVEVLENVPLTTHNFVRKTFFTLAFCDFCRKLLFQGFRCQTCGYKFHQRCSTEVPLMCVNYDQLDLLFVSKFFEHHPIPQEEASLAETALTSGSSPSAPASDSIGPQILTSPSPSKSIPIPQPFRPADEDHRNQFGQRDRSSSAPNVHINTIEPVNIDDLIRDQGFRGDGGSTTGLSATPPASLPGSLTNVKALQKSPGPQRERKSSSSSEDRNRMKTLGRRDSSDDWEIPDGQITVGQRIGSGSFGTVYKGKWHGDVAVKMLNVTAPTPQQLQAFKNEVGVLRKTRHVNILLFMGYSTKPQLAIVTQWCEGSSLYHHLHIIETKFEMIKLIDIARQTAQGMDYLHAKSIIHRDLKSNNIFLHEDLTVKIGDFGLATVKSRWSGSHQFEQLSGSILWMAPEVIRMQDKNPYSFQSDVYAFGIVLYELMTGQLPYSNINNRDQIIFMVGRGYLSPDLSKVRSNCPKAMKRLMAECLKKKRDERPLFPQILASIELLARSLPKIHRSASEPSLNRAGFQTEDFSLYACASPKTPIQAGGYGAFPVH
Serine/threonine-protein kinase B-raf (Homo sapiens), P15056 [V600E], sequence (P15056 whole entry V600E): as the sequence (P15056 whole entry) above, with V600E counted along it
Mitogen-activated protein kinase 4 (Homo sapiens), sequence (P31152 whole entry): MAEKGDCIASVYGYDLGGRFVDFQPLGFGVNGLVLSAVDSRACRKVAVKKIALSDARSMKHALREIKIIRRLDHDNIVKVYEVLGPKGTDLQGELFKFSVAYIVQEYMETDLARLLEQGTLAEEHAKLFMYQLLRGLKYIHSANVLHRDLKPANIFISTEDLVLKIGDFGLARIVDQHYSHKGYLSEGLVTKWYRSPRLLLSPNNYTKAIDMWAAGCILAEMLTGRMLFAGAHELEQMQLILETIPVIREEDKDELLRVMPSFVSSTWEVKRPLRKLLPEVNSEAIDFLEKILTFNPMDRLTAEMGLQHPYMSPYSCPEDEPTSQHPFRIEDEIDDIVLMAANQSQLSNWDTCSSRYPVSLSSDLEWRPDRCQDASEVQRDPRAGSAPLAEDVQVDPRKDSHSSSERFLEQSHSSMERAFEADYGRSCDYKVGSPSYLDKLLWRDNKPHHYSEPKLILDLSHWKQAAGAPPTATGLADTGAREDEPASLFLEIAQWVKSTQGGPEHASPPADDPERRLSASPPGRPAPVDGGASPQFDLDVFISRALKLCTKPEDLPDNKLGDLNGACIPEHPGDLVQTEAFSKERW
Ribosomal protein S6 kinase alpha-2 (Homo sapiens), sequence (Q15349 whole entry): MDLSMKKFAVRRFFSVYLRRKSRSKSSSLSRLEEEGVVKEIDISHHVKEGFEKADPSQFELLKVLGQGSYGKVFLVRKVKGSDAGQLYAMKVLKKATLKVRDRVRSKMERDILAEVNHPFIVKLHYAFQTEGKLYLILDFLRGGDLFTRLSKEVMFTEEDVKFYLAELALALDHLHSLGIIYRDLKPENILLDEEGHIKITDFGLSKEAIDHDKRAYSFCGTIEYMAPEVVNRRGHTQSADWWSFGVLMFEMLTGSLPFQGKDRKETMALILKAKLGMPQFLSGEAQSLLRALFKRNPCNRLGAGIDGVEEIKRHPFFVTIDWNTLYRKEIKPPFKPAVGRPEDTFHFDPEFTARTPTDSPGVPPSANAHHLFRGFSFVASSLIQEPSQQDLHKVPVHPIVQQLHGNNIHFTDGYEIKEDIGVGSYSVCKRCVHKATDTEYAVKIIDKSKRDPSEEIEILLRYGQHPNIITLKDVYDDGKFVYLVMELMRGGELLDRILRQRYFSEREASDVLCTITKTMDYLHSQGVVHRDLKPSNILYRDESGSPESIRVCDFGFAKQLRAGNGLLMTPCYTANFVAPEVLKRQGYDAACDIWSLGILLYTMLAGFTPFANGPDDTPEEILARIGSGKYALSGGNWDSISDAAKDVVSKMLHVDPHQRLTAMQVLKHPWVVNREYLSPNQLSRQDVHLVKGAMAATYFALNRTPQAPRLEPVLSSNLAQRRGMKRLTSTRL
G protein-coupled receptor kinase 6 (Homo sapiens), sequence (P43250 whole entry, looked up): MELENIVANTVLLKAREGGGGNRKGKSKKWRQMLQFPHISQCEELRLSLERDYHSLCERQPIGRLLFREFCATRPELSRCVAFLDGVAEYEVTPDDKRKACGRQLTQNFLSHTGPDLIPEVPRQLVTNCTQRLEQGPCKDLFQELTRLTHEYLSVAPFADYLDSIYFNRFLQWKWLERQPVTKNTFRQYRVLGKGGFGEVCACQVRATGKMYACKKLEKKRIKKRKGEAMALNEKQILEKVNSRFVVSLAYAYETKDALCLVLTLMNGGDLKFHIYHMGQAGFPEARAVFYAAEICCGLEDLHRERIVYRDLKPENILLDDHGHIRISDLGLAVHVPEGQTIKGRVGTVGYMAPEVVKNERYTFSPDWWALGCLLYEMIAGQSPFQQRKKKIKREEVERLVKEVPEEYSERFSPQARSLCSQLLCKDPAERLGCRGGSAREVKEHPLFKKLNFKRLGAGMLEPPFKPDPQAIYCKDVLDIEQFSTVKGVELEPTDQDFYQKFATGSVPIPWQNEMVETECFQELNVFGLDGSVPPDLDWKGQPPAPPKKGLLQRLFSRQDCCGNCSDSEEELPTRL

Cc1ccc(-c2ccc3c(ccc4sc5c(c43)NC[C@@H](C)NC5=O)n2)cn1
% of inhibition [1]: 10%

C=CC(=O)Nc1cccc(C(=O)Nc2ccc(Nc3cc(-c4[nH]c(SC)nc4C)ccn3)cc2)c1
% of control ([2]; at 1 µM): 80% | % of control ([2]; at 5 µM): 45%

Cc1cc(F)c(C(=O)Nc2cccc(-c3nncn3C(C)C)n2)cc1-n1cnc(C2CC2)c1
% of control [3]: 100%

COc1cc(Nc2nc(C)cc(-c3cnn4nc(OC)ccc34)n2)cc(C(F)(F)F)c1
% of control [4]: 100%

Cc1cnc(Nc2ccc(F)cc2Cl)nc1-c1c[nH]c(C(=O)N[C@H](CO)c2cccc(Cl)c2)c1
% of inhibition [5]: 7%

CN(C)C/C=C/C(=O)Nc1ccc(C(=O)N2CCCC(Nc3ncc(Cl)c(-c4c[nH]c5ccccc45)n3)C2)cc1 (stereo unspecified)
% of control [6]: 100%

Nc1cnc(N2CCc3cc(S(=O)(=O)Nc4c(F)cc(Cl)cc4F)cc(N4CCCC4=O)c32)nc1 [TP-020n]
% of control [7]: 100% | % of control [8]: 98%

O[C@H]1CC[C@H](Nc2ncc3nc(Nc4c(F)cc(F)cc4F)n([C@H]4CCOC4)c3n2)CC1
% of control [9]: 47%

N#Cc1cccc(-c2c[nH]c3ncnc(N4CCOCC4)c23)c1
% of inhibition [10]: 1%
